Source: paper PMC7369637, “Inhibition of Resistance-Refractory P. falciparum Kinase PKG Delivers Prophylactic, Blood Stage, and Transmission-Blocking Antiplasmodial Activity” (Cell Chemical Biology, 2020)

System: metabolite levels in Pf trophozoites and schizonts
Experiment: Metabolomics (UHPLC-MS) of treated trophozoites and schizonts
Format: cell-based, Plasmodium falciparum
Conditions: trophozoites
Protocol: Metabolomics experiments were performed as described elsewhere ([Murithi et al., 2019]). […] Following several washes, metabolites were extracted by 90% methanol containing 0.5 μM ^13C^15N-labelled aspartate as an internal standard. Nitrogen-dried samples were stored at -80°C. Samples were resuspended in high-performance liquid chromatography (HPLC) grade water that contained 1 μM chlorpropamide as an internal standard. They were then analyzed by ultra-high-performance liquid chromatography mass spectrometry UHPLC-MS ([Allman et al., 2016]). Data analysis was performed using the el-MAVEN software and the Metaboanalyst package in R Studio ([Murithi et al., 2019]).

## O=C1C(O)=C([C@H]2CC[C@H](c3ccc(Cl)cc3)CC2)C(=O)c2ccccc21 [ATQ, Atovaquone]
  Log2 fold change in 2-Hydroxy-2-methylbutanedioic acid level: -0.127
  Log2 fold change in 2_3-Diphosphoglyceric acid level: -0.381
  Log2 fold change in 3-phosphoglycerate level: -0.429
  Log2 fold change in 4-aminobutyrate level: 0.101
  Log2 fold change in 4-phosphopantothenate level: -0.459
  Log2 fold change in 6-phospho-D-gluconate level: -0.286
  Log2 fold change in ADP-D-glucose level: -0.046
  Log2 fold change in CDP level: -0.509
  Log2 fold change in CMP level: -0.007
  Log2 fold change in D-glucosamine-1/6-phosphate level: -0.044
  Log2 fold change in D-sedoheptulose-1/7-phosphate level: -0.528
  Log2 fold change in DL-Pipecolic Acid level: -0.217
  Log2 fold change in DLH level: 0.019
  Log2 fold change in DLS level: -0.123
  Log2 fold change in FAD level: -0.090
  Log2 fold change in FMN level: -0.124
  Log2 fold change in GDP level: 0.014
  Log2 fold change in GMP level: 0.614
  Log2 fold change in HVDD level: 0.032
  Log2 fold change in Hexose level: -0.376
  Log2 fold change in IMP level: 0.044
  Log2 fold change in N-Acetyl-L-alanine level: -0.316
  Log2 fold change in N-acetyl-L-ornithine level: 0.096
  Log2 fold change in N-acetyl-glutamate level: -0.170
  Log2 fold change in N-acetyl-glutamine level: -0.082
  Log2 fold change in N-carbamoyl-L-aspartate level: 3.058
  Log2 fold change in NAD+ level: -0.186
  Log2 fold change in NADP+ level: -0.065
  Log2 fold change in NADPH level: -0.700
  Log2 fold change in Octulose 8/1P level: -0.033
  Log2 fold change in Octulose Bisphosphate level: -0.267
  Log2 fold change in PD level: 0.177
  Log2 fold change in PE level: 0.343
  Log2 fold change in PEE level: -0.149
  Log2 fold change in PEEK level: 0.046
  Log2 fold change in PVNF level: -0.949
  Log2 fold change in Pyroglutamic acid level: -0.555
  Log2 fold change in Ribose-5-phosphate level: -0.276
  Log2 fold change in S-adenosyl-L-homocysteine level: -0.313
  Log2 fold change in Sedoheptulose bisphosphate level: -0.304
  Log2 fold change in UDP level: -0.826
  Log2 fold change in UDP-D-glucose level: -0.168
  Log2 fold change in UDP-D-glucuronate level: -0.164
  Log2 fold change in UDP-N-acetyl-glucosamine level: -0.499
  Log2 fold change in UMP level: -0.377
  Log2 fold change in a-ketoglutarate level: -0.00422
  Log2 fold change in acetyl-CoA level: -0.783
  Log2 fold change in acetyl-aspartate level: -0.358
  Log2 fold change in alanine/sarcosine level: -0.389
  Log2 fold change in arginine level: -0.197
  Log2 fold change in asparagine level: -0.111
  Log2 fold change in aspartate level: -0.858
  Log2 fold change in coenzyme A level: -0.813
  Log2 fold change in cyclic-AMP level: -0.306
  Log2 fold change in cytidine level: -0.308
  Log2 fold change in dCDP level: 0.078
  Log2 fold change in dCMP level: 0.286
  Log2 fold change in dCTP level: -0.396
  Log2 fold change in dGDP/ADP level: -0.020
  Log2 fold change in dGMP/AMP level: 0.757
  Log2 fold change in dTDP level: -0.522
  Log2 fold change in dTMP level: 0.797
  Log2 fold change in dTTP level: -1.044
  Log2 fold change in dihydroorotate level: 4.182
  Log2 fold change in folate level: -0.409
  Log2 fold change in fructose-1-6-bisphosphate level: -0.330
  Log2 fold change in fructose-6-phosphate level: -0.341
  Log2 fold change in fumarate level: -0.377
  Log2 fold change in glutamate level: 0.025
  Log2 fold change in glutamine level: -0.211
  Log2 fold change in glutathione disulfide level: -0.238
  Log2 fold change in glutathione level: -0.129
  Log2 fold change in guanosine level: -0.368
  Log2 fold change in histidine level: -0.281
  Log2 fold change in hydroxyproline/Aminolevulinate level: -0.316
  Log2 fold change in hypoxanthine level: -0.322
  Log2 fold change in inosine level: -0.490
  Log2 fold change in isoleucine level: -0.515
  Log2 fold change in lysine level: 0.274
  Log2 fold change in malate level: -0.381
  Log2 fold change in maleic acid level: -0.226
  Log2 fold change in methionine level: -0.384
  Log2 fold change in nicotinate level: -0.467
  Log2 fold change in orotate level: 0.364
  Log2 fold change in pantothenate level: -0.383
  Log2 fold change in phenylalanine level: -0.490
  Log2 fold change in phosphoenolpyruvate level: -0.226
  Log2 fold change in proline level: -0.424
  Log2 fold change in pyruvate level: -0.797
  Log2 fold change in ribose level: -0.358
  Log2 fold change in ribose-phosphate level: -0.355
  Log2 fold change in ribulose-5-phosphate level: -0.161
  Log2 fold change in serine level: -0.067
  Log2 fold change in sn-glycerol-3-phosphate level: 0.064
  Log2 fold change in succinate/Methylmalonic acid level: -0.878
  Log2 fold change in thiamine level: -0.352
  Log2 fold change in threonine/homoserine level: -0.156
  Log2 fold change in tryptophan level: -0.225
  Log2 fold change in tyrosine level: -0.394
  Log2 fold change in xanthosine level: -0.306
  Log2 fold change in xanthosine-5-phosphate level: -0.737
